Measurements from PubChem BioAssay AID1963960 (Molecular Pharmacology Branch, DTP, NCI, 2024).

Tested on: MDA-MB-468 spheroids with HUVEC/MSC, viability
Assay: Anticancer human tumor MDA-MB-468 cell line growth inhibition [PI3K];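 note: spheroids exposed to agents for seven days before readout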
Details: for viability, T/C: stronger effect = lower value; active = viability on the fitted dose curve at most 10% of control; inactive = the rest
From the text: Combinatorial screen of targeted agents with the PI3K inhibitors inavolisib, alpelisib, duvelisib, and copanlisib in multi-cell type tumor spheroids
A high-throughput screen of multi-cell type tumor spheroids was designed to identify active combinations of targeted small molecules and PI3K pathway inhibitors. Complex spheroids include a stromal component modeled by human endothelial cells (HUVEC) and fibroblasts modeled by human mesenchymal stem cells (MSCs). The concentration ranges selected for each drug and investigational agent were based upon clinically achievable concentrations if the clinical Cmax of the agent was known.
Compounds. The drugs and investigational agents: inavolisib (NSC800729), alpelisib (NSC765974), duvelisib (NSC772469), copanlisib (NSC816437), ipatasertib (NSC767898), afuresertib (NSC778305), talazoparib (NSC767125), sapanisertib (NSC764658), selumetinib (NSC741078), tovorafenib (DAY101, NSC766906), vemurafenib (NSC761431), ravoxertinib (NSC781343), sotorasib (NSC818433), MRTX1133 (NSC 836407), abemaciclib (NSC 768073), palbociclib (NSC758247), venetoclax (NSC 766270), SY5609 (NSC837396), enzalutamide (NSC755605), and darolutamide (NSC825331), were obtained from the National Cancer Institute (NCI) Developmental Therapeutics Program Chemical Repository. The FDA-approved anticancer drug set is available from the NCI Developmental Therapeutics Program. […] The stock solutions were prepared in dimethyl sulfoxide (DMSO, Sigma-Aldrich, St. Louis, MO, cat. D2650) at 800-fold the tested concentration and stored at -70 degrees C prior to their use. All drugs and investigational agents were tested over a range starting from a high concentration at or near the clinical Cmax and decreasing in half-log increments. If the clinical Cmax for an agent had not been determined, the highest concentration tested was 10 microM.
Cell Culture. All cells were maintained in an incubator at 37 degrees C and 5% CO2 with 95% humidity. The PDC lines were cultured according to standard operating procedures established by the NCI PDMR (https://pdmr.cancer.gov/sops/default.htm). All PDCs were thawed and cultured in Matrigel-coated flasks prepared with a working solution of 1X Ham's F-12 nutrient mix, without supplementation (Invitrogen, Waltham, MA, cat. 11765054), 100 U/mL penicillin-streptomycin (Invitrogen, cat. 15140122), and 2.5% Matrigel (Corning Inc., Corning, NY, cat. 354248) for the first three passages. The 354836-022-R-J1-PDC, 475296-252-R-J1-PDC, and 997726-040-R-J2-PDC lines were cultured in 6A media, which includes advanced DMEM/F-12 (Thermo Fisher Scientific, cat. 12634028), 10 mM HEPES (Thermo Fisher Scientific, cat. 15630080), 1X GlutaMAX supplement (Thermo Fisher Scientific, cat. 35050061), 0.1 mg/mL primocin (InvivoGen, San Diego, CA, cat. ant-pm-2), 10% defined fetal bovine serum, heat inactivated (HyClone Laboratories Inc., Logan, UT, cat. SH30070.03HI), 50% L-WRN conditioned media (ATCC, cat. CRL-3276), 1.25 mM N-Acetyl-L-cysteine (Sigma-Aldrich, cat. A9165), 10 mM nicotinamide (Sigma-Aldrich, cat. N0636), 1X B-27 supplement (Thermo Fisher Scientific, cat. 17504044), 1X N-2 supplement (Thermo Fisher Scientific, cat. 17502048), and 10 microM Y-27632 dihydrochloride (Tocris Bioscience, Bristol, United Kingdom, cat. 1254). The 624824-186-R-J2-PDC line was cultured in 6C/Colon 1B media, which includes all 6A media components plus 50 ng/mL human EGF recombinant protein (Thermo Fisher Scientific, cat. PHG0311). […]

[1] = curve of first compound, second compound 0.00316 µM
[2] = curve of first compound, second compound 0.01 µM
[3] = curve of first compound, second compound 0.0316 µM
[4] = curve of first compound, second compound 0.1 µM
[5] = curve of first compound, second compound 0.316 µM
[6] = curve of first compound, second compound 1 µM

CCCS(=O)(=O)Nc1ccc(F)c(C(=O)c2c[nH]c3ncc(-c4ccc(Cl)cc4)cc23)c1F
inactive: viability, T/C (compound 0.316 µM) 107% [middle of 4 runs] | viability, T/C (compound 1 µM) 97.7% [middle of 4 runs] | viability, T/C (compound 3.16 µM) 78.9% [middle of 4 runs] | viability, T/C (compound 10 µM) 16.4% [middle of 4 runs]
5.5 µM [middle of 4 runs]: IC50 (curve of compound)

CNC(=O)c1ccc(N2C(=S)N(c3ccc(C#N)c(C(F)(F)F)c3)C(=O)C2(C)C)cc1F + CC(Nc1ccc2c(c1)OCCn1cc(N3C(=O)OCC3C(F)F)nc1-2)C(N)=O
> 10 µM: IC50 [1] | IC50 [2] | IC50 [3] | IC50 [4] | IC50 [5] | IC50 [6]
inactive: viability, T/C (second compound 0.00316 µM, first compound 0.0316 µM) 95.2% | viability, T/C (second compound 0.00316 µM, first compound 0.1 µM) 94.6% | viability, T/C (second compound 0.00316 µM, first compound 0.316 µM) 94.9% | viability, T/C (second compound 0.00316 µM, first compound 1 µM) 98.9% | viability, T/C (second compound 0.00316 µM, first compound 3.16 µM) 94.3% | viability, T/C (second compound 0.00316 µM, first compound 10 µM) 76.7% | viability, T/C (second compound 0.01 µM, first compound 0.0316 µM) 100% | viability, T/C (second compound 0.01 µM, first compound 0.1 µM) 107% | viability, T/C (second compound 0.01 µM, first compound 0.316 µM) 105% | viability, T/C (second compound 0.01 µM, first compound 1 µM) 107% | viability, T/C (second compound 0.01 µM, first compound 3.16 µM) 82.3% | viability, T/C (second compound 0.01 µM, first compound 10 µM) 76.5% | viability, T/C (second compound 0.0316 µM, first compound 0.0316 µM) 90.7% | viability, T/C (second compound 0.0316 µM, first compound 0.1 µM) 105% | viability, T/C (second compound 0.0316 µM, first compound 0.316 µM) 80.5% | viability, T/C (second compound 0.0316 µM, first compound 1 µM) 98.5% | viability, T/C (second compound 0.0316 µM, first compound 3.16 µM) 80.8% | viability, T/C (second compound 0.0316 µM, first compound 10 µM) 62.2% | viability, T/C (second compound 0.1 µM, first compound 0.0316 µM) 85.9% | viability, T/C (second compound 0.1 µM, first compound 0.1 µM) 84.1% | viability, T/C (second compound 0.1 µM, first compound 0.316 µM) 83.5% | viability, T/C (second compound 0.1 µM, first compound 1 µM) 85.8% | viability, T/C (second compound 0.1 µM, first compound 3.16 µM) 82.1% | viability, T/C (second compound 0.1 µM, first compound 10 µM) 56.4% | viability, T/C (second compound 0.316 µM, first compound 0.0316 µM) 95.6% | viability, T/C (second compound 0.316 µM, first compound 0.1 µM) 84.6% | viability, T/C (second compound 0.316 µM, first compound 0.316 µM) 75.8% | viability, T/C (second compound 0.316 µM, first compound 1 µM) 95.2% | viability, T/C (second compound 0.316 µM, first compound 3.16 µM) 94% | viability, T/C (second compound 0.316 µM, first compound 10 µM) 57.1% | viability, T/C (second compound 1 µM, first compound 0.0316 µM) 88% | viability, T/C (second compound 1 µM, first compound 0.1 µM) 76.4% | viability, T/C (second compound 1 µM, first compound 0.316 µM) 79.9% | viability, T/C (second compound 1 µM, first compound 1 µM) 79.9% | viability, T/C (second compound 1 µM, first compound 3.16 µM) 73.3% | viability, T/C (second compound 1 µM, first compound 10 µM) 57.1%

Cn1cnc2c(F)c(Nc3ccc(Br)cc3Cl)c(C(=O)NOCCO)cc21 + CC(Nc1ccc2c(c1)OCCn1cc(N3C(=O)OCC3C(F)F)nc1-2)C(N)=O
inactive: viability, T/C (second compound 0.00316 µM, first compound 0.00949 µM) 83.2% | viability, T/C (second compound 0.00316 µM, first compound 0.03 µM) 78.1% | viability, T/C (second compound 0.00316 µM, first compound 0.0949 µM) 81.8% | viability, T/C (second compound 0.00316 µM, first compound 0.3 µM) 92.6% | viability, T/C (second compound 0.00316 µM, first compound 0.949 µM) 87.3% | viability, T/C (second compound 0.00316 µM, first compound 3 µM) 56.7% | viability, T/C (second compound 0.01 µM, first compound 0.00949 µM) 80% | viability, T/C (second compound 0.01 µM, first compound 0.03 µM) 88.9% | viability, T/C (second compound 0.01 µM, first compound 0.0949 µM) 79.9% | viability, T/C (second compound 0.01 µM, first compound 0.3 µM) 90.4% | viability, T/C (second compound 0.01 µM, first compound 0.949 µM) 73.9% | viability, T/C (second compound 0.01 µM, first compound 3 µM) 61.9% | viability, T/C (second compound 0.0316 µM, first compound 0.00949 µM) 103% | viability, T/C (second compound 0.0316 µM, first compound 0.03 µM) 86.4% | viability, T/C (second compound 0.0316 µM, first compound 0.0949 µM) 86.3% | viability, T/C (second compound 0.0316 µM, first compound 0.3 µM) 83% | viability, T/C (second compound 0.0316 µM, first compound 0.949 µM) 63.9% | viability, T/C (second compound 0.0316 µM, first compound 3 µM) 58.6% | viability, T/C (second compound 0.1 µM, first compound 0.00949 µM) 91.3% | viability, T/C (second compound 0.1 µM, first compound 0.03 µM) 73.5% | viability, T/C (second compound 0.1 µM, first compound 0.0949 µM) 70.5% | viability, T/C (second compound 0.1 µM, first compound 0.3 µM) 77.5% | viability, T/C (second compound 0.1 µM, first compound 0.949 µM) 66.7% | viability, T/C (second compound 0.1 µM, first compound 3 µM) 48.9% | viability, T/C (second compound 0.316 µM, first compound 0.00949 µM) 81.3% | viability, T/C (second compound 0.316 µM, first compound 0.03 µM) 78.6% | viability, T/C (second compound 0.316 µM, first compound 0.0949 µM) 64.4% | viability, T/C (second compound 0.316 µM, first compound 0.3 µM) 67% | viability, T/C (second compound 0.316 µM, first compound 0.949 µM) 64.1% | viability, T/C (second compound 0.316 µM, first compound 3 µM) 48.9% | viability, T/C (second compound 1 µM, first compound 0.00949 µM) 79.4% | viability, T/C (second compound 1 µM, first compound 0.03 µM) 63.7% | viability, T/C (second compound 1 µM, first compound 0.0949 µM) 77% | viability, T/C (second compound 1 µM, first compound 0.3 µM) 69.7% | viability, T/C (second compound 1 µM, first compound 0.949 µM) 55.1% | viability, T/C (second compound 1 µM, first compound 3 µM) 39%
1.52 µM: IC50 [6]
> 3 µM: IC50 [1] | IC50 [2] | IC50 [3] | IC50 [4] | IC50 [5]
